Laboratory results: patent US7312248B2, “Control of parasites in animals by the use of novel trifluoromethanesulfonanilide oxime ether derivatives” (Schering-Plough Animal Health Corporation, priority 2004, dated 2007)

Test system: cat flea (Ctenocephalides felis)
Test: whole plant or invertebrate
Assay type: in vivo
Settings: 24 h; Laboratory 2 B data
Description: b) Ctenocephalides felis Adulticide Assay: C. felis Single Dose Screen
Mortality of fleas was the primary endpoint in the assay. Fleas were considered dead if they didn't move or were on their sides and unable to walk or right themselves. […] The concentration chosen (1.26 μg/cm^2) was higher than that known to kill 90% of cat fleas (LC90) using the reference compound, permethrin.
The test species was the cat flea (Ctenocephalides felis). The strain used was obtained from external suppliers as pupae and held in the laboratory under testing conditions until the adults had emerged. Fifteen (15) fleas were used in a minimum of four replicates against a single concentration level (approximately 60 fleas). The insects were selected to be in the adult life stage, aged between 3 and 7 days post emergence.
The compounds to be tested were supplied as solids and were prepared in acetone as described below prior to testing. Samples were stored in a refrigerator (5±1° C.) unless otherwise specified.
During the mortality testing, the temperature was maintained at 25±1° C. Humidity was maintained at 75±5%. The base (area=159 mm^2) of a 100 mL glass Erlenmeyer (conical) flask provided the treatment surface. Flasks were pretreated with Coatasil™ glass treatment to maximise bio-availability of test compounds by preventing them from binding to glass the surface. The base of the 100 mL Erlenmeyer flask was treated with 0.5 mL of test sample in acetone and gently swirled. This volume was sufficient to cover the base of the flask. Flasks were left to dry for 24 hours before flea exposure.
Adult cat fleas were placed into a sorting chamber, which allowed fleas to jump into the Erlenmeyer flasks. Fifteen (15) adult cat fleas were collected in each flask. The top of the flasks were then covered in Parafilm™ and small holes were made to allow gas exchange. A 0.5 mL volume of acetone as a solvent control was applied to the base of an Erlenmeyer flask and the testing proceeded in the same manner described above. Cat fleas in the treatment containers were held under testing conditions for 8, 24 and/or 48 hours. Mortality was recorded at 8, 24, 8 and 24, or 24 and 48 hours. Pooled 8, 24, 8 and 24, and 24 and 48 hour mortality data were converted to percentages and are summarized by Tables 14, 14A and 14B, below.

| SMILES | C. felis Mortality (%) 24 h |
| --- | --- |
| CO/N=C(\c1ccccc1)c1cc(Cl)ccc1NS(=O)(=O)C(F)(F)F [Compound 232] | 96^B % |
| CO/N=C(\c1ccccc1)c1cc(Cl)ccc1NS(=O)(=O)C(F)(F)F [Compound 233] | 15^B % |

Same assay, conditions: 48 h; Laboratory 2 B data

| SMILES | C. felis Mortality (%) 48 h [%] |
| --- | --- |
| CO/N=C(\c1ccccc1)c1cc(Cl)ccc1NS(=O)(=O)C(F)(F)F [Compound 233] | 96 |

Same assay, conditions: Ctenocephalides felis, 8 h, read-out: C. felis Mortality (%) 8 h, 8 h; Laboratory 2 B data

| SMILES | mortality at 1.26 µg/cm2, 1.26 µg/cm2 [%] |
| --- | --- |
| CCC/C(=N\OC1CCCCC1)c1cc(Cl)ccc1NS(=O)(=O)C(F)(F)F [Compound 192] | 18 |

Same assay, conditions: Ctenocephalides felis, 24 h, read-out: C. felis Mortality (%) 24 h, 24 h; Laboratory 1 A data

| SMILES | mortality at 1.26 µg/cm2, 1.26 µg/cm2 [%] |
| --- | --- |
| C/C(=N\OCC=C(Cl)Cl)c1ccccc1NS(=O)(=O)C(F)(F)F [Compound 25] | 100 |
| C/C(=N\OCC#N)c1ccccc1NS(=O)(=O)C(F)(F)F [Compound 27] | 95 |
| CCO/N=C(\C)c1ccccc1NS(=O)(=O)C(F)(F)F [Compound 29] | 92 |
| CO/N=C(\c1ccccc1)c1ccccc1NS(=O)(=O)C(F)(F)F [Compound 30] | 62 |
| CCO/N=C(\c1ccccc1)c1ccccc1NS(=O)(=O)C(F)(F)F [Compound 31] | 74 |
| CO/N=C(\C)c1cc2c(cc1NS(=O)(=O)C(F)(F)F)OCO2 [Compound 32] | 100 |
| CC/C(=N\OC)c1cc(Cl)ccc1NS(=O)(=O)C(F)(F)F [Compound 34] | 100 |
| CO/N=C(\C)c1cc(Cl)ccc1NS(=O)(=O)C(F)(F)F [Compound 35] | 100 |
| CCO/N=C(\C)c1cc(Cl)ccc1NS(=O)(=O)C(F)(F)F [Compound 36] | 100 |
| CCO/N=C(\CC)c1cc(Cl)ccc1NS(=O)(=O)C(F)(F)F [Compound 37] | 29 |
| CO/N=C(\C)c1cccc(OC)c1NS(=O)(=O)C(F)(F)F [Compound 40] | 45 |
| CCO/N=C(\C)c1cccc(OC)c1NS(=O)(=O)C(F)(F)F [Compound 41] | 45 |
| CO/N=C(\C)c1cccc(C)c1NS(=O)(=O)C(F)(F)F [Compound 42] | 72 |
| CCO/N=C(\C)c1cccc(C)c1NS(=O)(=O)C(F)(F)F [Compound 43] | 86 |
| C/C(=N\OCc1ccccn1)c1cc(Cl)ccc1NS(=O)(=O)C(F)(F)F [Compound 48] | 94 |
| CCO/N=C(\C)c1ccc(F)cc1NS(=O)(=O)C(F)(F)F [Compound 51] | 100 |
| CO/N=C(\C)c1cc(Br)ccc1NS(=O)(=O)C(F)(F)F [Compound 52] | 100 |
| CCO/N=C(\C)c1cc(Br)ccc1NS(=O)(=O)C(F)(F)F [Compound 53] | 100 |
| CSCO/N=C(\C)c1cccc(C)c1NS(=O)(=O)C(F)(F)F [Compound 54] | 93 |
| CSCO/N=C(\C)c1ccccc1NS(=O)(=O)C(F)(F)F [Compound 56] | 100 |
| C/C(=N\OC(C)C)c1cccc(C)c1NS(=O)(=O)C(F)(F)F [Compound 57] | 77 |
| CCC(C)O/N=C(\C)c1cccc(C)c1NS(=O)(=O)C(F)(F)F (stereo not shown) [Compound 58] | 25 |
| CSCO/N=C(\C)c1cc(Cl)ccc1NS(=O)(=O)C(F)(F)F [Compound 124] | 100 |
| C/C(=N\Oc1ccc(C)cc1)c1cc(Cl)ccc1NS(=O)(=O)C(F)(F)F [Compound 141] | 41 |
| CC/C(=N\Oc1ccc(C)cc1)c1cc(Cl)ccc1NS(=O)(=O)C(F)(F)F [Compound 142] | 72 |

| SMILES | mortality at 1.26 µg/cm2, 1.26 µg/cm2 [%] |
| --- | --- |
| C/C(=N\Oc1ccc(C(F)(F)F)cc1)c1cc(Cl)ccc1NS(=O)(=O)C(F)(F)F [Compound 143] | 7 |
| C/C(=N\Oc1ccc(F)c(Cl)c1)c1cc(Cl)ccc1NS(=O)(=O)C(F)(F)F [Compound 144] | 15 |
| CC/C(=N\Oc1ccc(C(F)(F)F)cc1)c1cc(Cl)ccc1NS(=O)(=O)C(F)(F)F [Compound 145] | 9 |
| CC/C(=N\Oc1ccc(F)c(Cl)c1)c1cc(Cl)ccc1NS(=O)(=O)C(F)(F)F [Compound 146] | 11 |
| C/C(=N\Oc1ccc(F)c(F)c1)c1cc(Cl)ccc1NS(=O)(=O)C(F)(F)F [Compound 147] | 4 |
| CC/C(=N\Oc1ccc(F)c(F)c1)c1cc(Cl)ccc1NS(=O)(=O)C(F)(F)F [Compound 148] | 38 |
| C/C(=N\Oc1ccccc1C)c1cc(Cl)ccc1NS(=O)(=O)C(F)(F)F [Compound 149] | 17 |
| CC/C(=N\Oc1ccccc1C)c1cc(Cl)ccc1NS(=O)(=O)C(F)(F)F [Compound 150] | 48 |
| C/C(=N\Oc1ccc(OC(F)(F)F)cc1)c1cc(Cl)ccc1NS(=O)(=O)C(F)(F)F [Compound 151] | 62 |
| CC/C(=N\Oc1ccc(OC(F)(F)F)cc1)c1cc(Cl)ccc1NS(=O)(=O)C(F)(F)F [Compound 152] | 61 |
| CC/C(=N\OCC#N)c1cc(Cl)ccc1NS(=O)(=O)C(F)(F)F [Compound 153] | 77 |
| CC/C(=N\OC(C)C)c1cc(Cl)ccc1NS(=O)(=O)C(F)(F)F [Compound 154] | 100 |
| C/C(=N\OCC#N)c1cc(Cl)ccc1NS(=O)(=O)C(F)(F)F [Compound 160] | 42 |
| O=S(=O)(Nc1ccc(Cl)cc1/C(=N/OC1CCCC1)c1ccccc1)C(F)(F)F [Compound 162] | 14 |
| O=S(=O)(Nc1ccc(Cl)cc1/C(=N/Oc1ccc(Cl)cc1)c1ccccc1)C(F)(F)F [Compound 164, N-{4-chloro-2-[(4-chlorophenoxyimino)phenylmethyl]phenyl}trifluoromethanesulfonamide] | 19 |
| O=S(=O)(Nc1ccc(Cl)cc1/C(=N/Oc1ccc(F)cc1)c1ccccc1)C(F)(F)F [Compound 165, N-{4-chloro-2-[(4-fluorophenoxyimino)phenylmethyl]phenyl}trifluoromethanesulfonamide] | 21 |
| CCC/C(=N\Oc1ccc(Cl)cc1)c1cc(Cl)ccc1NS(=O)(=O)C(F)(F)F [Compound 166, N-{4-chloro-2-[1-(4-chlorophenoxyimino)butyl]phenyl}trifluoromethanesulfonamide] | 17 |
| O=S(=O)(Nc1ccc(Cl)cc1/C(=N/Oc1ccc(Cl)cc1)C1CCCCC1)C(F)(F)F [Compound 167] | 3 |
| CCC/C(=N\Oc1ccc(F)cc1)c1cc(Cl)ccc1NS(=O)(=O)C(F)(F)F [Compound 168] | 36 |
| O=S(=O)(Nc1ccc(Cl)cc1/C(=N/Oc1ccc(F)cc1)C1CCCCC1)C(F)(F)F [Compound 169, N-{4-chloro-2-[(4-fluorophenoxyimino)cyclohexylmethyl]phenyl}trifluoromethanesulfonamide] | 9 |
| C/C(=N\OCC1CCCCC1)c1cc(Cl)ccc1NS(=O)(=O)C(F)(F)F [Compound 173] | 96 |
| CC(C)O/N=C(\c1ccccc1)c1cc(Cl)ccc1NS(=O)(=O)C(F)(F)F [Compound 176] | 52 |
| O=S(=O)(Nc1ccc(Cl)cc1/C(=N/OC1CCCCC1)c1ccccc1)C(F)(F)F [Compound 179] | 12 |
| O=S(=O)(Nc1ccc(Cl)cc1/C(=N/OCC1CCCCC1)c1ccccc1)C(F)(F)F [Compound 180] | 8 |
| CC(C)(C)/C(=N\Oc1ccc(Cl)cc1)c1cc(Cl)ccc1NS(=O)(=O)C(F)(F)F [Compound 182, N-{4-chloro-2-[1-(4-chlorophenoxyimino)2,2-dimethylpropyl]phenyl}trifluoromethanesulfonamide] | 28 |

Same assay, conditions: Ctenocephalides felis, 24 h, read-out: C. felis Mortality (%) 24 h, 24 h; Laboratory 2 B data

| SMILES | mortality at 1.26 µg/cm2, 1.26 µg/cm2 [%] |
| --- | --- |
| COCCON=C(c1ccccc1)c1cc(Cl)ccc1NS(=O)(=O)C(F)(F)F (racemic) [Compound 234, N-{4-chloro-[(2-methoxyethoxyimino)phenylmethyl]phenyl}trifluoromethanesulfonamide] | 64 |
| CCC/C(=N\OC1CCCCC1)c1cc(Cl)ccc1NS(=O)(=O)C(F)(F)F [Compound 192] | 43 |
| CCC(CC)O/N=C(\C)c1ccc(C(F)(F)F)cc1NS(=O)(=O)C(F)(F)F [Compound 236] | 69 |
| C/C(=N\OC1CCCCC1)c1ccc(C(F)(F)F)cc1NS(=O)(=O)C(F)(F)F [Compound 237] | 4 |
| C/C(=N\OC1C=CCCC1)c1ccc(C(F)(F)F)cc1NS(=O)(=O)C(F)(F)F (stereo not shown) [Compound 238] | 61 |

Same assay, conditions: Ctenocephalides felis, 48 h, read-out: C. felis Mortality (%) 48 h, 48 h; Laboratory 2 B data

| SMILES | mortality at 1.26 µg/cm2, 1.26 µg/cm2 [%] |
| --- | --- |
| COCCON=C(c1ccccc1)c1cc(Cl)ccc1NS(=O)(=O)C(F)(F)F (racemic) [Compound 234, N-{4-chloro-[(2-methoxyethoxyimino)phenylmethyl]phenyl}trifluoromethanesulfonamide] | 100 |
| CO/N=C(\c1ccccc1)c1cc(Cl)ccc1NS(=O)(=O)C(F)(F)F [Compound 232] | 100 |
| CCC(CC)O/N=C(\C)c1ccc(C(F)(F)F)cc1NS(=O)(=O)C(F)(F)F [Compound 236] | 100 |
| C/C(=N\OC1CCCCC1)c1ccc(C(F)(F)F)cc1NS(=O)(=O)C(F)(F)F [Compound 237] | 36 |
| C/C(=N\OC1C=CCCC1)c1ccc(C(F)(F)F)cc1NS(=O)(=O)C(F)(F)F (stereo not shown) [Compound 238] | 84 |
